Source: patent publication US7052850B2, “Isolated human EDG-4 receptor” (priority 1997, dated 2006)

Test system: pcDNA3-transfected 293-EBNA cells
Assay: SRE luciferase reporter in 293-EBNA cells, empty vector pcDNA3
Format: cell-based
Conditions: for SRE reporter response: Assay 3, 3 μM
Procedure: The protocol described in Example 11 for Assay 1 was allowed except for the following changes: • 1) 100 mm plates of 293-EBNA ith a confluency of ˜80% were used for transfection, • 2) SRE Cotransfection: 0.5 μg of 2XSREtk-p4Luc-zeo reporter DNA and 3.5 μg pcDNA3, EDG-1, EDG-3 pC3-hE3P2, different from the clone used in Assay 2 of Example 11) or the newly cloned human EDG-4 (pC3-hedg4#36); NF-κB Cotransfection: 2 μg 6XNFκBtk-p4LUc-zeo reporter DNA and 2.0 μg pcDNA3, EDG-1, EDG-3 (pC3-hE3HP2), or EDG-4 (pC3-hedg4#36). Expression plasmid and reporter plasmid DNA samples were combined and diluted in 750 μl of DMEM/F12 (serum free media) and 20 μl Plus Reagent (Lipofectamine Plus Kit, Life Technologies Cat. 109640-13), and incubated at room temperature for 15 min. • 3) 30 μl Lipofectamine Reagent (Lipofectamine Plus Kit) was diluted in 750 μl DMEM/F12. The diluted Lipofectamine was then combined with the DNA/Plus mixture and incubated at room temperature for 15 min. • 4) The 293-EBNA plates were washed once with PBS and 5 ml DMEM/F12 was added to each plate. • 5) DNA/Plus/Lipofectamine mixture was added to each plate of 293-EBNA cells. The plates were left for 3 hr at 37° C. in a 5% CO2 incubator. • 6) The transfection medium was replaced with serum-free DMEM/F12 for cells transfected with 2XSREtk-p4Luc-zeo reporter DNA and with DMEM/F12 plus 10% FBS for cells transfected with 6XNFκBtk-p4Luc-zeo reporter DNA. • Day 2. • 2) Transfected cells were harvested by trypsinization and 50,000 cells per well were plated in 96-well Blackview plates coated with poly D-lysine Becton Dickinson Labware, Cat. 40640). No cells were plated in the outside wells of the 96-well plate. • Day 3. • 1) Media for cells transfected with 6XNF-κBtk-p4Luc-zeo reporter DNA was replaced with DMEM/F12 plus 0.5% FBS. • Day 4. • 1) Media was removed and cells treated with compounds diluted in DMEM/F12 media. The following treatments were used for all transfections:
Transfection was accomplished using the Lipofectamine Plus kit (Life Technologies, Cat. 10964-013), using the manufacturer's recommended conditions. Optimal SRE induction was seen when cells were seeded so as to become 100% confluent at the time of treatment, 72–96 hr after transfection.
293-EBNA cells were grown, lipofected in monolayer cultures, and pretreated as described above for Example 11, assay #1, except that NF-κB and AP-1 reporter-transfected cells were preteated for 6 hr in medium containing 0.5% […], then treated overnight in the same medium with or without 10 μM LPA.

Row | Compound | endogenous SRE reporter response vs untreated control cells (pcDNA3, 10 μM LPA) | SRE reporter response (pcDNA3 control) | induction of the SRE reporter (Example 15A, pcDNA3 control, 3 μM SPC, 6 hr)
1 | lysophosphatidic acid [LPA] | about 1.5 fold | – | –
2 | CCCCCCCCCCCCC/C=C/[C@@H](O)[C@@H](N)COP(=O)([O-])OCC[N+](C)(C)C [SPC, sphingosylphosphorylcholine] | – | not | about 2.5 fold
3 | CCCCCCCCCCCCC/C=C/[C@@H](O)[C@@H](N)COP(=O)(O)O [S1P, sphingosine 1-phosphate] | – | about 1.5 fold | –
